Laboratory results as given in patent US20130004579A1, “Use of Plant Lectins to Target Leukocytes” (priority 2011, published 2013).

Assays:
[1] = system: IL-1α production by BMDCs from NLRP3−/− mice; experiment: IL-1α ELISA on supernatants of NLRP3−/− BMDCs; type: cell-based, mouse; details: SC-PS 31.25 μg/ml to 1 mg/ml, lectin 1.56 to 50 μg/ml, vs untargeted particles
Method: (§1) BMDCs were isolated and cultured as described in Example 2 at a density of 6.25×10^5 cells/ml in 96 well U-bottomed microplates. Cells were stimulated with a Toll-like receptor (TLR) ligand (LPS or Pam2CSK4) for 6 hours. Cells were then incubated with either medium, alum/SC-PS particles, alum/SC-PS particles conjugated with UEA-1, alum/SC-PS particles conjugated with UEA-1 mimetic or with UEA-1 alone for 24 hours. After incubation, supernatants from BMDCs were collected and cytokine concentrations measured by ELISA. Antibody pairs specific for each cytokine were used for immunoassaying. The following cytokines were measured by immunoassay: IL-1α, IL-1β.
(§2) Capture antibodies were obtained from BD Pharmingen (San Diego, Calif.), BioLegend (San Diego, Calif.) and R&D Systems, Inc. (Minneapolis, Minn.) and prepared according to the manufacturer's specifications (see Table 2) and a volume of 40 μl/well added to high-binding 96 well ELISA plates. Plates were then incubated for 2 hours at 37° C. or overnight at 4° C. After incubation, plates were washed in PBS-T (×3) and tapped dry. Plates were then blocked with the appropriate blocking solution (see Table 2) and incubated for 2 hours at 37° C. After incubation plates were washed in PBS-T (×3) and tapped dry. […] Plates were then stopped by the addition of 20 μl/well of 1M H2SO4 and read. […]

[2] = system: IL-1α production by bone marrow-derived dendritic cells (BMDCs); experiment: IL-1α ELISA on supernatants of BMDCs incubated with particles; type: cell-based, mouse; details: C57BL/6 BMDCs; LPS 1 ng/ml; serial dilutions SC-PS 31.25 μg/ml to 1 mg/ml with lectin 1.56 to 50 μg/ml; vs unconjugated SC-PS
Method: as §1
(§3) Capture antibodies were obtained from BD Pharmingen (San Diego, Calif.), BioLegend (San Diego, Calif.) and R&D Systems, Inc. (Minneapolis, Minn.) and prepared according to the manufacturer's specifications (see Table 2) and a volume of 40 μl/well added to high-binding 96 well ELISA plates. Plates were then incubated for 2 hours at 37° C. or overnight at 4° C. After incubation, plates were washed in PBS-T (×3) and tapped dry. Plates were then blocked with the appropriate blocking solution (see Table 2) and incubated for 2 hours at 37° C. After incubation plates were washed in PBS-T (×3) and tapped dry. Supernatants were transferred from cell culture plates to fresh 96 well plates. All supernatants were stored at −20° C. when not in use. Cell supernatants were applied to plates at the indicated dilutions (see Table 2). A blank triplicate was left on each plate containing the diluent as a blank. Standards were prepared at the starting concentration in the recommended diluent as specified by the manufacturer and transferred to a 96 well plate and serial dilutions (1:2) performed (see Table 2). All standards and samples were applied to plates at 40 μl/well total volume for incubation overnight at 4° C. After incubation plates were washed with PBS-T (×5) and tapped dry. […] Plates were then stopped by the addition of 20 μl/well of 1M H2SO4 and read. […]

[3] = system: IL-1β production by bone marrow-derived dendritic cells (BMDCs); experiment: IL-1β ELISA on supernatants of BMDCs incubated with particles; type: cell-based, mouse; details: C57BL/6 BMDCs; LPS 1 ng/ml; serial dilutions SC-PS 31.25 μg/ml to 1 mg/ml with lectin 1.56 to 50 μg/ml; vs unconjugated SC-PS
Method: as §1, §3

[4] = system: IL-1β production by BMDCs from NLRP3−/− mice; experiment: IL-1β ELISA on supernatants of NLRP3−/− BMDCs; type: cell-based, mouse; details: SC-PS 31.25 μg/ml to 1 mg/ml, lectin 1.56 to 50 μg/ml
Method: as §1, §2

[5] = system: BALB/c mice; experiment: OVA-specific cytokine responses of peritoneal cells after i.p. immunization; type: in vivo, mouse; details: i.p. days 0 and 35, day 42; OVA 100 μg/ml restimulation; comparison with OVA-loaded PS particles
Method: Five groups of 6-8 week old female BALB/c mice (five mice per group) were i.p, immunized on day 0 with a total volume of 200 μl of vaccine. All ovalbumin (OVA) used was endotoxin-free. The groups were:
On day 34, blood was collected from the tail vein of each mouse and used to measure serum antibody titres. The following day, mice were i.p. immunized with an identical series of booster vaccinations as on day 0. Mice were sacrificed on day 42 by cervical dislocation, and cells were harvested.
Spleens were removed from the mice, and single cell suspensions prepared as described above. Peritoneal lavages were also performed. Cells were plated onto 96 well U-bottomed plates at cell densities of 2×10^6 cells/ml for splenocytes and 1×10^6 cells/ml for peritoneal lavage cells in 200 μl of complete RPMI 1640 medium per well.
Cells were stimulated in vitro with PBS, endotoxin-free OVA (50 μg/ml, 100 μg/ml, 500 μg/ml), phorbol myristate acetate (PMA, 25 ng/ml) combined with anti-CD3 (1 μg/ml) or anti-CD3 alone (0.5 μg/ml). Cells were incubated with antigen for 3 days. Supernatants were then removed and IL-5, IL-10, IL-17 and IFN-γ cytokine concentrations were determined by ELISA. […]

Molecule | IL-1α production in the absence of NLRP3 [1] | TLR-4 agonist-primed IL-1α production [2] | TLR-4 agonist-primed IL-1β production [3] | IL-1β production in the absence of NLRP3 [4] | antigen-specific IL-5 by peritoneal cells [5] | antigen-specific IL-17 by peritoneal cells [5]
PHA-L: SC-PS particles conjugated with biotinylated Phaseolus vulgaris leukoagglutinin | enhances IL-1α production | greatly increased IL-1α production and remained effective across four of the five serial dilutions | greatly increased IL-1β production and remained effective across four serial dilutions | not IL-1β production | – | –
PHA-E: SC-PS particles conjugated with biotinylated Phaseolus vulgaris erthyroagglutinin | enhances IL-1α production | greatly increased IL-1α production and remained effective across four of the five serial dilutions | greatly increased IL-1β production and remained effective across four serial dilutions | not IL-β production | – | –
OVA alone: endotoxin-free ovalbumin antigen, 50 μg/mouse, without particles (protein, UniProt P01012 2-386, looked up, endotoxin-free, endotoxin-free ovalbumin antigen, 50 μg/mouse, without particles) Ovalbumin: GSIGAASMEFCFDVFKELKVHHANENIFYCPIAIMSALAMVYLGAKDSTRTQINKVVRFDKLPGFGDSIEAQCGTSVNVHSSLRDILNQITKPNDVYSFSLASRLYAEERYPILPEYLQCVKELYRGGLEPINFQTAADQARELINSWVESQTNGIIRNVLQPSSVDSQTAMVLVNAIVFKGLWEKAFKDEDTQAMPFRVTEQESKPVQMMYQIGLFRVASMASEKMKILELPFASGTMSMLVLLPDEVSGLEQLESIINFEKLTEWTSSNVMEERKIKVYLPRMKMEEKYNLTSVLMAMGITDVFSSSANLSGISSAESLKISQAVHAAHAEINEAGREVVGSAEAGVDAASVSEEFRADHPFLFCIKHIATNAVLFFGRCVSP | – | – | – | – | stronger | stronger
PNA: SC-PS particles conjugated with biotinylated peanut agglutinin (conjugate, UniProt P02872 24-273, looked up, biotinylated, on streptavidin polystyrene particles, SC-PS particles conjugated with biotinylated peanut agglutinin) Galactose-binding lectin: AETVSFNFNSFSEGNPAINFQGDVTVLSNGNIQLTNLNKVNSVGRVLYAMPVRIWSSATGNVASFLTSFSFEMKDIKDYDPADGIIFFIAPEDTQIPAGSIGGGTLGVSDTKGAGHFVGVEFDTYSNSEYNDPPTDHVGIDVNSVDSVKTVPWNSVSGAVVKVTVIYDSSTKTLSVAVTNDNGDITTIAQVVDLKAKLPERVKFGFSASGSLGGRQIHLIRSWSFTSTLITTTRRSIDNNEKKIMNMASA | – | increased IL-1α production across all five of the serial dilutions | increased | – | – | –
